Some results are limits rather than exact numbers.

Data set [1] relates to P. aeruginosa PAO1 biofilms. The experiment in a line: Anti-biofilm assay, CFU count of adherent cells. The data set is classed as cell-based, Pseudomonas aeruginosa PAO1. To be noted: PAO1, 48 h, relative to untreated control, mean ± SD of 3 independent experiments; for inhibition at 50 µM: Pseudomonas aeruginosa; for Biofilm Inhibition (%): 50 µM. The protocol:
The effect of all compounds was evaluated on PAO1 biofilms, grown in 24-well microplates. The antibiofilm assay used in this study is based on a low nutritive culture medium, a rather weak inoculum (10^2 CFU/mL), and a regular renewal of the culture medium (at 2, 4, 6, 20, and 24 h), in order to promote the growth of adhered cells as biofilm, instead of the growth and/or sedimentation of planktonic cells. Since the QS systems are involved in early steps of biofilm formation, compounds were added at t0. After incubation, viable cells were quantified by CFU plate counts.
The rather low concentration of 50 µM used was set up according to detected concentrations of QS molecules in CF patients’ lungs. […] For all compounds, MICs/MBCs were higher than 500 µM. To be considered active, a threshold of 50% inhibition, relative to the untreated control, was applied.
Pseudomonas aeruginosa PAO1 was obtained from the Institute Pasteur Collection (CIP 104116, Paris, France), frozen and kept at -80 °C in a 20% (v/v) glycerol stock solution. Before each experiment, two successive subcultures were prepared on trypticase soy agar and incubated for 24 h under aerobic conditions at 37 °C. Before each experiment, bacterial suspensions of 10^8 CFU/mL were prepared by adjusting OD at 640 nm to 0.150.
The bacterial enumerations were done on trypticase soy agar. The minimum biofilm broth used for biofilm formation (MBB) was prepared in sterile distilled water (SDW) and was composed of MgSO4·7H2O (0.02 g/L), FeSO4·7H2O (0.5 mg/L), Na2HPO4 (1.25 g/L), KH2PO4 (0.5 g/L), (NH4)2SO4 (0.1 g/L), and glucose (0.05 g/L) from Merck-Sigma (France).
The enumeration of adhered bacteria was carried-out according to Campanac et al. with some modifications. P. aeruginosa biofilms were grown in a 24-wells microtiter plate for 48 h. The culture medium was composed of BBM 2X (1.0 mL) and 1.0 mL of a 10^−4 M solution of tested compound dissolved in SDW (final concentration 50 µM). After inoculation with 100 µL of a 10^2 CFU/mL bacterial suspension of P. aeruginosa PAO1 (final inoculum 10 CFU/well), the microtiter plate was incubated à 37 °C. After 2 h, 4 h, 6 h, 20 h and 24 h of incubation, each well was emptied, rinsed twice with SDW, and the culture medium was renewed. After 48 h of culture, the biofilm was rinsed twice with 2.0 mL SDW. The bottom of each well was scraped with a sterile spatula and suspended in 1.0 mL of SDW. The content of each well was diluted by serial dilutions in test tubes. After inclusion of 0.9 mL of each dilution in trypticase soy agar, Petri dishes were incubated for 48 h at 37 °C. The number of colony forming units (CFUs) was counted and the inhibition percentage calculated using the following formula: Inhibition(%)=Adhered cellsControl(CFU/mL)−Adhered cellsSample(CFU/mL) /Adhered cellsControl×100

One may read the inhibition as the drop in the measured response relative to a control, in per cent. Low values mean little suppression, high ones strong suppression. In general, melting point refers to the temperature, or range, at which the solid turns liquid. `O=C(Nc1ccccc1Br)c1cc(=O)c2ccccc2o1` [3j, N-(2-Bromophenyl)-4-oxo-4H-chromene-2-carboxamide] gave a melting point of 195 °C. The same compound gave an inhibition at 50 µM in data set [1] of 46.1 ± 10.2%.
For the compound `COc1ccccc1C(=O)Nc1cc(=O)c2ccccc2o1` [6q, 2-Methoxy-N-(4-oxo-4H-chromen-2-yl) benzamide], the melting point was 260 °C. The compound further registered an inhibition at 50 µM in data set [1] of 35.2 ± 6.8%.
The like results for `CCN(CC)CCCC(C)NC(=O)c1cc(=O)c2ccccc2o1` (stereo not shown) [3′g, N-(5-(Diethylamino)pentan-2-yl)-4-oxo-4H-chromene-2-carboxamide] were, in that order, 110 °C and 14.7 ± 2.1%.
Consider `O=C(Nc1ccc(F)cc1)c1cc(=O)c2ccccc2o1` [3e, N-(4-Fluorophenyl)-4-oxo-4H-chromene-2-carboxamide], for which the melting point was found to be 211 °C. In addition, in data set [1], at 50 µM the inhibition was 73.3 ± 11%.
Compound `Cc1ccc(C(=O)Nc2cc(=O)c3ccccc3o2)cc1` [6b, 4-Methyl-N-(4-oxo-4H-chromen-2-yl) benzamide] had a melting point of 240 °C. In data set [1], this compound displayed an inhibition at 50 µM of 67 ± 3.6%.
The compound `O=C(Nc1cc(=O)c2ccccc2o1)c1ncccn1` [6v, N-(4-Oxo-4H-chromen-2-yl) pyrimidine-2-carboxamide] returned a melting point of 215 °C. The inhibition at 50 µM in data set [1] came out at 48.8 ± 2.6%.
The matching figures for `O=C(Nc1cc(=O)c2ccccc2o1)C12CC3CC(CC(C3)C1)C2` [6y, (3R,5R,7R)-N-(4-Oxo-4H-chromen-2-yl) adamantane-1-carboxamide]: 286 °C and 19.5 ± 1.8%.
In turn, `CCCc1ccc(C(=O)Nc2cc(=O)c3ccccc3o2)cc1` [6d, N-(4-Oxo-4H-chromen-2-yl)-4-propylbenzamide] returned a melting point of 229 °C. For the same compound, the inhibition at 50 µM in data set [1] turned out to be 69.9 ± 9.7%.
The like results for `COc1ccc(NC(=O)c2cc(=O)c3ccccc3o2)cc1OC` [3s, N-(3,4-Dimethoxyphenyl)-4-oxo-4H-chromene-2-carboxamide] were, in that order, 229 °C and less than 10%.
The like results for `COc1cc(OC)cc(C(=O)Nc2cc(=O)c3ccccc3o2)c1` [6t, 3,5-Dimethoxy-N-(4-oxo-4H-chromen-2-yl) benzamide] were, in that order, 198 °C and 43.8 ± 2.4%.
Consider `COc1cc(NC(=O)c2cc(=O)c3ccccc3o2)cc(OC)c1` [3t, N-(3,5-Dimethoxyphenyl)-4-oxo-4H-chromene-2-carboxamide], for which the melting point was 211 °C. Further, the inhibition at 50 µM in data set [1] was less than 10%.
The matching figures for `CCN(CC)Cc1cc(NC(=O)c2cc(=O)c3ccccc3o2)ccc1O` [3′c, N-(3-((Diethylamino)methyl)-4-hydroxyphenyl)-4-oxo-4H-chromene-2-carboxamide]: 186 °C and 39.7 ± 4.5%.
The matching figures for `CCCC(=O)Nc1cc(=O)c2ccccc2o1` [6w, N-(4-Oxo-4H-chromen-2-yl) butyramide]: 212 °C and 56.4 ± 7.2%.
The like results for `O=C(Nc1ccc([N+](=O)[O-])cc1[N+](=O)[O-])c1cc(=O)c2ccccc2o1` [3n, N-(2,4-Dinitrophenyl)-4-oxo-4H-chromene-2-carboxamide] were, in that order, 330 °C and less than 10%.
`O=C(Nc1cc([N+](=O)[O-])cc([N+](=O)[O-])c1)c1cc(=O)c2ccccc2o1` [3o, N-(3,5-Dinitrophenyl)-4-oxo-4H-chromene-2-carboxamide] yielded a melting point of 312 °C. In data set [1], this compound gave an inhibition at 50 µM of 43.8 ± 24.2%.
The like results for `COc1ccccc1NC(=O)c1cc(=O)c2ccccc2o1` [3q, N-(2-Methoxyphenyl)-4-oxo-4H-chromene-2-carboxamide] were, in that order, 199 °C and 41.3 ± 5.7%.
The like results for `O=C(Nc1cc(=O)c2ccccc2o1)c1ccccc1Cl` [6i, 2-Chloro-N-(4-oxo-4H-chromen-2-yl) benzamide] were, in that order, 228 °C and 59.3 ± 3.3%.
As for `CCN(CC)Cc1cc(NC(=O)c2cc(=O)c3ccccc3o2)ccc1O` [3′b], the “Biofilm Inhibition (%)” value in data set [1] turned out to be 35.5 ± 5.8%.
In turn, `CCCc1ccc(NC(=O)c2cc(=O)c3ccccc3o2)cc1` [3d, 4-Oxo-N-(4-propylphenyl)-4H-chromene-2-carboxamide] gave a melting point of 173 °C. The compound also had an inhibition at 50 µM in data set [1] of 55.6 ± 18.3%.
The matching figures for `O=C(Nc1ccc(F)c(Cl)c1)c1cc(=O)c2ccccc2o1` [3l, N-(3-Chloro-4-fluorophenyl)-4-oxo-4H-chromene-2-carboxamide]: 291 °C and less than 10%.
The like results for `O=C(Nc1cc(=O)c2ccccc2o1)c1ccc(Cl)cc1` [6f, 4-Chloro-N-(4-oxo-4H-chromen-2-yl) benzamide] were, in that order, 296 °C and 66.6 ± 2.1%.
In the case of `Cc1ccc(NC(=O)c2cc(=O)c3ccccc3o2)cc1` [3b, 4-Oxo-N-(p-tolyl)-4H-chromene-2-carboxamide], the inhibition at 50 µM in data set [1] is 39.1 ± 5.4%.
For `COc1ccc(C(=O)Nc2cc(=O)c3ccccc3o2)cc1OC` [6s, 3,4-Dimethoxy-N-(4-oxo-4H-chromen-2-yl) benzamide], the melting point was 246 °C. The compound also displayed an inhibition at 50 µM in data set [1] of 71.9 ± 13.5%.
`O=C(Nc1cc(=O)c2ccccc2o1)c1ccc([N+](=O)[O-])cc1` [6m, 4-Nitro-N-(4-oxo-4H-chromen-2-yl) benzamide] showed a melting point of 323 °C. Moreover, in data set [1], the “Biofilm Inhibition (%)” value was “inactive” and the inhibition at 50 µM is less than 10%.
For `O=C(Nc1ccccc1F)c1cc(=O)c2ccccc2o1` [3h, N-(2-Fluorophenyl)-4-oxo-4H-chromene-2-carboxamide], the melting point is 225 °C. In data set [1], this compound showed an inhibition at 50 µM of 42.4 ± 10.4%.
The matching figures for `O=C(Nc1ccc(F)cc1Cl)c1cc(=O)c2ccccc2o1` [3k, N-(2-Chloro-4-fluorophenyl)-4-oxo-4H-chromene-2-carboxamide]: 229 °C and 44.7 ± 9.4%.
The compound `COc1ccc(NC(=O)c2cc(=O)c3ccccc3o2)cc1` [3p, N-(4-Methoxyphenyl)-4-oxo-4H-chromene-2-carboxamide] showed an inhibition at 50 µM in data set [1] of 47.5 ± 5.3%.
Take `O=C(NCCCn1ccnc1)c1cc(=O)c2ccccc2o1` [3′f, N-(3-(1H-Imidazol-1-yl)propyl)-4-oxo-4H-chromene-2-carboxamide]: the melting point was determined as 171 °C. This compound also returned an inhibition at 50 µM in data set [1] of less than 10%.
In turn, `O=C(Nc1cc(=O)c2ccccc2o1)c1ccc(F)cc1` [6e, 4-Fluoro-N-(4-oxo-4H-chromen-2-yl) benzamide] registered a melting point of 251 °C. Besides, the inhibition at 50 µM in data set [1] turned out to be 65.3 ± 7.6%.
The like results for `O=C(NC1CCCCC1)c1cc(=O)c2ccccc2o1` [3x, N-Cyclohexyl-4-oxo-4H-chromene-2-carboxamide] were, in that order, 179 °C and 32 ± 10.3%.
On to `O=C(Nc1ccc(Br)cc1)c1cc(=O)c2ccccc2o1` [3g, N-(4-Bromophenyl)-4-oxo-4H-chromene-2-carboxamide], for which, in data set [1], the inhibition at 50 µM was determined as 47.2 ± 2.8%.
Compound `O=C(Nc1ncccn1)c1cc(=O)c2ccccc2o1` [3v, 4-Oxo-N-(pyrimidin-2-yl)-4H-chromene-2-carboxamide] gave a melting point of 189 °C. In data set [1], this compound displayed an inhibition at 50 µM of 46 ± 7.3%.
The like results for `CSc1ccccc1C(=O)Nc1cc(=O)c2ccccc2o1` [6r, 2-(Methylthio)-N-(4-oxo-4H-chromen-2-yl) benzamide] were, in that order, 218 °C and 60.3 ± 15.8%.
Regarding `O=C(Nc1ccccc1Cl)c1cc(=O)c2ccccc2o1` [3i, N-(2-Chlorophenyl)-4-oxo-4H-chromene-2-carboxamide], the melting point is 181 °C. In data set [1], this compound showed an inhibition at 50 µM of 35.2 ± 14.8%.
The like results for `O=C(Nc1ccc(N2CCOCC2)cc1)c1cc(=O)c2ccccc2o1` [3u, N-(4-Morpholinophenyl)-4-oxo-4H-chromene-2-carboxamide] were, in that order, 288 °C and 51.2 ± 11.7%.

These data come from publication PMC9026348, “Investigation of Direct and Retro Chromone-2-Carboxamides Based Analogs of Pseudomonas aeruginosa Quorum Sensing Signal as New Anti-Biofilm Agents” (Pharmaceuticals, 2022).
